Article PMC7939384, “In crystallo screening for proline analog inhibitors of the proline cycle enzyme PYCR1” (The Journal of Biological Chemistry, 2021)

System: MCF10A hRAS^V12 breast cancer spheroids
Assay: 13C5-glutamine tracer analysis of de novo proline biosynthesis in spheroids
Assay type: cell-based
Conditions: 5 mM, 5th day of treatment, 13C5-glutamine incubation, vs untreated
Excerpt: We tested whether NFLP treatment decreases proline biosynthesis in breast cancer cells grown as spheroids. To do so we applied ^13C tracer analysis ([19]), which is a method that can inform about nutrient contribution to biosynthetic pathways, to MCF10A hRAS^V12 breast cancer spheroids grown in DMEM/F12 containing proline. Specifically, we measured the contribution of ^13C5-glutamine to proline, which enables us to conclude on changes in de novo proline biosynthesis.
Figure 7 NFLP targets proline metabolism in breast cancer spheroids.A, abundance of proline M + 0 and M + 5 labeling in MCF10A hRAS^V12 spheroids upon ^13C5-glutamine incubation and treatment without (n = 3) or with NFLP (5 mM; n = 3). Analysis was performed at 5th day of treatment. B, relative abundance of intracellular proline levels in MCF10A hRAS^V12 spheroids upon treatment (5 days) without (n = 6), with THFA (n = 3) or with NFLP (n = 6). C, protein content in MCF10A hRAS^V12 spheroids treated for 5 days without (n = 6), with THFA (n = 3) or with NFLP (n = 6). Bar graphs show mean ± S.D. from biological independent samples and P-values were obtained with Mann-Whitney tests. […]
THFA and NFLP were supplemented (pH neutralized with NaOH) at day zero to the media of MCF10A H-RAS^V12 cells at the concentration of 5 mM. Protein levels were detected with the use of a […] (Thermo Scientific). […]

## O=CN1CCC[C@H]1C(=O)O [NFLP, N-formyl L-proline]
  13C-labeled (M + 5) fraction of proline: decreased
  unlabeled (M + 0) fraction of proline: increased
